In article PMC7906907, “Targeting STAT3 by a small molecule suppresses pancreatic cancer progression” (Oncogene, 2021):

Columns and labels:
PAN02-luc [1] = test: Pancreatic cancer liver metastatic mouse model; format: in vivo, C57BL/6 mice
Procedure: C57BL/6 mice were intrasplenically injected with luciferase-expressing PAN02 cells (PAN02-luc) in matrigel and tumor growth was assessed (A) and quantified (B) by bioluminescent imaging weekly. […] C After 4 weeks, mice were sacrificed and livers were imaged. D The body weight of C57BL/6 tumor-bearing mice were measured weekly.
C57BL/6, male, 8-week-old mice were obtained from the Animal Center of East China Normal University. All animal experimental protocols were approved by the Animal Investigation Committee of the Institute of Biomedical Sciences, East China Normal University. PAN02 cells that stably expressed luciferase (PAN02-luc) were embedded in Matrigel (BD Biosciences) and intrasplenically injected into mice. Tumors were allowed to grow for 1 week and treatment of the mice with either compound or control was started after grouping of the mice according to average bioluminescence. The IVIS Imaging System (Xenogen Corporation) was used to monitor pancreatic tumor growth and metastasis. Images and measurements of bioluminescent signals were acquired and analyzed using Living Image and Xenogen software.

PAN02-luc [2] = test: Orthotopic pancreatic cancer tumor model; format: in vivo, C57BL/6 mice; conditions: week 4, C188-9 group
Procedure: Fig. 7 N4 inhibits tumor growth in an orthotopic pancreatic cancer model. C57BL/6 mice were injected the tail of the pancreas with luciferase-expressing PAN02 cells (PAN02-luc) in matrigel and tumor growth was assessed (A) and quantified (B) by bioluminescent imaging weekly. Data represent the mean ± SD; *P < 0.05, **P < 0.01, ***P < 0.001, ****P < 0.0001, n.s. not significant by one-way ANOVA followed by multiple-comparison tests. (n = 5 mice per group) C After 4 weeks, mice were sacrificed and the pancreas were imaged. The tumor of pancreas were photographed (D) and weighted (E), scale bar, 0.5 cm.
Briefly, specimens of tumor tissue from xenograft models and orthotopic models were fixed with 4% paraformaldehyde solution at 4 °C overnight. […] Then, according to the manufacturer’s instructions (SK-4100; Vector laboratories), the avidin-biotin peroxidase complex was used, followed by colorimetric detection using DAB. Finally, hematoxylin was used to counterstain the sections and coverslips were mounted.
C57BL/6 mice, male, 4–6 week old were obtained from the Animal Center of East China Normal University. All animal experimental protocols were approved by the Animal Investigation Committee of the Institute of Biomedical Sciences, East China Normal University. PAN02 cells that stably expressed luciferase (PAN02-luc) were embedded in Matrigel (BD Biosciences) were injected with 5 × 10^5 in the tail of the pancreas. On the next day (day 0), the mice were subjected to bioluminescent imaging and divided into four groups according to the luciferase luminescence value. Mice were treated with intraperitoneal injection of indicated compound or drug. Tumor growth was analyzed once a week by an IVIS Imaging System (Xenogen Corporation, Alameda, CA) and end of study tumor weight was determined immediately postmortem. […] Images and measurements of bioluminescent signals were acquired and analyzed using Living Image and Xenogen software.

STAT3^127–722 protein = biological target: T1, STAT3^127–722 protein (Homo sapiens, UniProt P40763); test: Surface plasmon resonance (SPR) assay; format: binding; conditions: SPR
T1 construct: made in house
T1 sequence (P40763 127-722): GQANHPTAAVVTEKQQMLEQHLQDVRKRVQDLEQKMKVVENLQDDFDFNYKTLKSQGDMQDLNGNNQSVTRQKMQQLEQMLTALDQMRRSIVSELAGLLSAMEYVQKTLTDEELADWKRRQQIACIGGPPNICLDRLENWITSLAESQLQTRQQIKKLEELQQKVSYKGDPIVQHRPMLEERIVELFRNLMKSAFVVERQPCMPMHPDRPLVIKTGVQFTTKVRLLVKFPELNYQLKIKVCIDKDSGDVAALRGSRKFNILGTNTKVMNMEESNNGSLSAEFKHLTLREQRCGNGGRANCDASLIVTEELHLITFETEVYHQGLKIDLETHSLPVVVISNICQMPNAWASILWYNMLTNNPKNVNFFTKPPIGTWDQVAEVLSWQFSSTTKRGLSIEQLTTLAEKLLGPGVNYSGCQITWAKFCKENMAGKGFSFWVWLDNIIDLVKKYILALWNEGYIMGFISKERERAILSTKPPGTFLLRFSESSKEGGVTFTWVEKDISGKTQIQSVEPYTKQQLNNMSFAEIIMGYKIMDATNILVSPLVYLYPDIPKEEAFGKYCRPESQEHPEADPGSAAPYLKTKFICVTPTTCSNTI
Procedure: Surface plasmon resonance (SPR) analysis was conducted with a Biacore T200 instrument (GE Healthcare) with CM5 sensor chip (GE Healthcare). To test N4 binding of STAT3^127–722 protein, serially diluted concentrations of N4 were injected into the flow system. Experiments were conducted using phosphate buffered saline (PBS) and the analyte was injected at the flow rate of 30 μL/min. The association time was 60 s and the dissociation time was 30 s. Since N4 was dissolved in PBS containing 5% dimethyl sulfoxide and a solvent correction assay was performed to adjust the results. STAT3^127–722 protein was immobilized on the sensor chip (CM5) using the amine-coupling method according to standard protocols. N4 or Stattic at various concentrations were injected into the flow system. […] The KD values were calculated with the kinetics and affinity analysis option of Biacore T200 plus evaluation software (version 3.0).

[3] = biological target: His-STAT3^127-722 protein (Homo sapiens, UniProt P40763); test: Fluorescence polarization (FP) assay, STAT3-phosphopeptide interaction; format: binding; design: We purified amino acids 127–722 of the STAT3 protein for this assay; made in house; conditions: Supplementary Table 1; inhibition of STAT3 dimerization in FP assay; read-out: FP assay (IC50 μM)
Sequence of His-STAT3^127-722 protein (P40763 127-722): as above
Procedure: A Purified STAT3 protein was incubated with labeled phosphopeptide, 5-carboxyfluorescein-GpYLPQTV-NH2 for 1 h at 37 °C. FP signals were measured, and the data were analyzed using Graph Pad 7.0 software. […] C Different concentrations of N4 were pre-incubated with recombined STAT3 protein for 1 h, then 10 nM of labeled peptide was added for 1 h. The IC50 was calculated using Graph Pad 7.0.
The labeled phosphopeptide: 5-carboxyfluorescein-GpYLPQTV-NH2 (where pY represents phospho-Tyr) was used as the STAT3 binding probe. To evaluate the effect of compounds in inhibiting STAT3-peptide interaction, serial dilutions of the STAT3 competitors were prepared. The diluted compounds were added to the reaction mixture in 100 μl of FP buffer (50 mM HEPES, pH 7.5, 150 mM NaCl, 0.1% NP-40, and 1 mM dithiothreitol) containing 500 nM his-STAT3^127–722 protein for pre-incubation at 37 °C for 1 h. Then, 10 nM of the labeled peptide was added and incubated for 1 h. After incubation, FP was measured on a Cytation^TM 5 cell imaging multi-mode Reader (BioTek) using excitation and emission wavelengths of 480 nm and 535 nm, respectively. Each reaction was repeated two or three times. Binding or competitive parameters were calculated from a nonlinear regression using GraphPad Prism 7.0.

Row | Kd (STAT3^127–722 protein; STAT3^127–722 immobilized on CM5 chip, 25 °C) | Kd (STAT3^127–722 protein; value given in figure) | IC50 [3] | SMILES | all mice died by week (PAN02-luc [1]; C188-9 group, n = 5) | tumor metastasis suppressed compared with the control group (PAN02-luc [1]; week 4, C188-9 group) | tumor volume suppressed compared with the control group (PAN02-luc [2])
1 |  |  |  | COc1ccc(S(=O)(=O)Nc2cc(-c3c(O)ccc4ccccc34)c(O)c3ccccc23)cc1 [C188-9, reference compound] | ≤ 6 week | 30.65% | 48.23%
2 | 9.62 µM | 9.62 µM | 4.99 µM | O=[N+]([O-])c1ccc2c(c1)S(=O)(=O)C=C2 [Stattic, reference compound] |  |  | 
